# Results from the supplement of paper PMC10307832.
# Experiments:
# Test in all cases: relative viability (nuclei count vs DMSO), 5 days (fraction); higher = more cells survive
# Linifanib + Dasatinib = compound: Cc1ccc(F)c(NC(=O)Nc2ccc(-c3cccc4[nH]nc(N)c34)cc2)c1 [Linifanib] + Cc1nc(Nc2ncc(C(=O)Nc3c(C)cccc3Cl)s2)cc(N2CCN(CCO)CC2)n1 [Dasatinib] (partner 0.075 µM)
# Summary of the method: (§1)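 The day after seeding in 1536-well plates, lung cancer cell lines were treated by pin tool with a single drug, or with a fixed anchor-drug dose together with five library-drug doses (not always all listed) in √10 steps. After 5 days, a combined fix-and-stain solution (final 0.05% Triton X-100, 1% formaldehyde, 1 ug/ml Hoechst) was added. Nuclei counted on 4× images gave relative viability as treated counts over vehicle counts, reported as the median of duplicate plates.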
# Linifanib + Palbociclib = compound: Cc1ccc(F)c(NC(=O)Nc2ccc(-c3cccc4[nH]nc(N)c34)cc2)c1 [Linifanib] + CC(=O)c1c(C)c2cnc(Nc3ccc(N4CCNCC4)cn3)nc2n(C2CCCC2)c1=O [Palbociclib] (partner 0.5 µM)
# Summary of the method: as §1
# Linifanib + Lapatinib = compound: Cc1ccc(F)c(NC(=O)Nc2ccc(-c3cccc4[nH]nc(N)c34)cc2)c1 [Linifanib] + CS(=O)(=O)CCNCc1ccc(-c2ccc3ncnc(Nc4ccc(OCc5cccc(F)c5)c(Cl)c4)c3c2)o1 [Lapatinib] (partner 2 µM)
# Summary of the method: as §1
# Linifanib + Alpelisib = compound: Cc1ccc(F)c(NC(=O)Nc2ccc(-c3cccc4[nH]nc(N)c34)cc2)c1 [Linifanib] + Cc1nc(NC(=O)N2CCC[C@H]2C(N)=O)sc1-c1ccnc(C(C)(C)C(F)(F)F)c1 [Alpelisib] (partner 2 µM)
# Summary of the method: as §1
# Linifanib + Pictilisib = compound: Cc1ccc(F)c(NC(=O)Nc2ccc(-c3cccc4[nH]nc(N)c34)cc2)c1 [Linifanib] + CS(=O)(=O)N1CCN(Cc2cc3nc(-c4cccc5[nH]ncc45)nc(N4CCOCC4)c3s2)CC1 [Pictilisib] (partner 1 µM)
# Summary of the method: as §1
# Linifanib + Trametinib = compound: Cc1ccc(F)c(NC(=O)Nc2ccc(-c3cccc4[nH]nc(N)c34)cc2)c1 [Linifanib] + CC(=O)Nc1cccc(-n2c(=O)n(C3CC3)c(=O)c3c(Nc4ccc(I)cc4F)n(C)c(=O)c(C)c32)c1 [Trametinib] (partner 0.02 µM)
# Summary of the method: as §1
Cell Line,relative viability (Linifanib + Dasatinib; first compound 0.03162 µM),relative viability (Linifanib + Dasatinib; first compound 0.1 µM),relative viability (Linifanib + Dasatinib; first compound 0.3162 µM),relative viability (Linifanib + Palbociclib; first compound 0.03162 µM),relative viability (Linifanib + Palbociclib; first compound 0.1 µM),relative viability (Linifanib + Palbociclib; first compound 0.3162 µM),relative viability (Linifanib + Lapatinib; first compound 0.03162 µM),relative viability (Linifanib + Lapatinib; first compound 0.1 µM),relative viability (Linifanib + Lapatinib; first compound 0.3162 µM),relative viability (Linifanib + Alpelisib; first compound 0.03162 µM),relative viability (Linifanib + Alpelisib; first compound 0.1 µM),relative viability (Linifanib + Alpelisib; first compound 0.3162 µM),relative viability (Linifanib + Pictilisib; first compound 0.03162 µM),relative viability (Linifanib + Pictilisib; first compound 0.1 µM),relative viability (Linifanib + Pictilisib; first compound 0.3162 µM),relative viability (Linifanib + Trametinib; first compound 0.03162 µM),relative viability (Linifanib + Trametinib; first compound 0.1 µM),relative viability (Linifanib + Trametinib; first compound 0.3162 µM)
NCI-H358,0.175,0.204,0.205,0.132,0.126,0.114,0.531,0.543,0.433,0.897,0.879,0.795,0.407,0.37,0.32,0.121,0.121,0.137
HARA,0.234,0.335,0.285,0.274,0.244,0.303,0.815,0.905,0.73,0.864,0.983,0.756,0.337,0.52,0.3,0.813,0.809,0.591
HOP-62,0.672,0.702,0.701,0.454,0.453,0.465,1.02,0.739,1.02,1.38,1.03,1.07,0.709,0.693,0.88,0.412,0.439,0.355
PC-3 [JPC-3],1.04,1.01,0.972,0.615,0.537,0.487,0.482,0.413,0.496,1.05,1.02,1.04,0.743,0.786,0.687,0.706,0.756,0.659
NCI-H460,0.577,0.6,0.508,0.133,0.187,0.152,1.1,1.11,0.697,0.432,0.602,0.469,0.397,0.448,0.317,0.178,0.168,0.146
NCI-H23,0.736,0.928,0.84,0.486,0.57,0.487,0.991,1.14,1.01,0.563,0.807,0.76,0.542,0.524,0.523,0.399,0.487,0.396
201T,0.571,0.623,0.559,0.369,0.371,0.348,1.07,1.03,1.05,1,1.06,0.978,0.69,0.704,0.668,0.746,0.736,0.758
RERF-LC-KJ,0.836,0.983,0.937,1.07,1.1,1.05,0.885,0.891,0.868,0.888,1.04,0.75,0.564,0.6,0.484,0.871,0.87,0.877
